From publication PMC4326489, “Efficacy and pharmacokinetic evaluation of a novel anti-malarial compound (NP046) in a mouse model” (Malaria Journal, 2015)
Where “and” joins values, the source holds several entries; their conditions need not be identical. Identical values can stand only once. Like-named read-outs stand apart in the source and are kept apart here.

Experiments:
[1] = tested on: Plasmodium berghei transfected with green fluorescence protein (strain ANKA); test: In vivo efficacy (four-day dosing) in P. berghei-infected mice, % parasitaemia by flow cytometry; design: species or system Plasmodium berghei in male C57BL/6 mice; details: day five post-infection; for % parasitaemia: once a day for four days, mean ± S.E.M; for % growth inhibition: relative to negative control (placebo)
Procedure: Plasmodium berghei transfected with green fluorescence protein (strain ANKA), a chloroquine-sensitive strain, was stored in liquid nitrogen. Parasites were thawed and administered intraperitoneally (IP) to infect two donor mice a week before the experiment commenced. […] Finally, each of the test animals received 200 μl of the P. berghei-infected RBCs (1×10^7 per 200 μl PBS) IP to infect them with the parasite. There were three animals per dose group, and each of them received 200 μl of NP046 in water orally and intravenously (volume adjusted relative to the weight of mouse) at their respective dose concentration as shown below:
The test compound was administered to the animals once a day for four days. […] Blood samples were collected via tail bleeding in tubes containing PBS on day 5, and % parasitaemia was determined with FACSCalibur™ using the software CellQuestPro [5].
Finally, the percentage parasite growth inhibition was calculated using the following equation [6]: [drawing 1]

[2] = In vivo PK evaluation in mice (blood, LC-MS/MS, non-compartmental analysis); design: species or system male C57BL/6 mice; details: for concentration at 7 h: read-out: mean blood concentration at seven hours after dosing
Procedure: The in vivo PK properties of NP046 were evaluated following oral (50 and 10 mg/kg) and IV (5 mg/kg) administration of the compound in water to male C57BL/6 mice (n = 5). Blood samples were collected via tail bleeding in heparinized tubes at predetermined sampling times on ice, and were stored at -80°C until analysis. Despite the critical problem of obtaining numerous blood samples from a mouse without compromising the health/safety of the animal, blood samples at all the sampling times, i.e. 0.17, 0.5, 1, 3, 5 and 7 hours for the IV dose groups, and 0.5, 1, 3, 5 and 7 hours for the oral dose groups were collected from each mouse. The extraction volume during sample analysis was targeted at the lowest possible volume (20 μl) thereby minimizing the total volume of blood harvested from the animal.
Blood samples collected from mice following the administration of NP046 together with the calibration standards (STDs) and quality controls (QCs) of NP046 were analyzed using a validated LC-MS/MS assay (for details of the LC-MS/MS assay see Additional file 2). Concentration vs time profiles were constructed and using Summit PK software the data were processed to obtain the PK properties of NP046.
Blood samples collected from mice after the administration of NP046, together with the calibration standards (STDs) and quality controls (QCs), were analysed using a fully validated LC-MS/MS assay. NP046 concentrations were detectable for up to seven hours after oral and IV dosing. Concentration vs time profiles (Figures 3 and 4) were constructed and the data processed with Summit PK software (non-compartmental analysis) to obtain the PK parameters as presented in Table 2. The LC-MS/MS method performed very well; NP046 concentrations in the mice were detectable for up to seven hours after both 50 and 10 mg/kg oral dosing, with mean concentrations of 0.05 and 0.02 μM, respectively.

[3] = Non-specific binding to the micro-partition device (ultrafiltration); assay type: in vitro ADME; details: PBS pH 7.4
Procedure: PPB (plasma protein binding), the extent to which a drug binds to protein in plasma, can affect the PK-PD properties of a drug. Thus, determining the PPB property of a drug in the early stage of drug development process is crucial and a prerequisite for lead prioritization. Initially the PPB assay was performed using an ultrafiltration method [see Additional file 3], which depends on centrifugal force to move the unbound analyte of interest through a size-selective membrane. Ultrafiltration is recommended for the determination of PPB property if the non-specific binding (NSB) of the test drug to the micro-partition device is less than 5%. If NSB > 5%, an alternative technique such as equilibrium dialysis or ultracentrifugation should be used.
Procedure for the determination of nonspecific binding by Ultrafiltration (procedure was adopted from Dow, 2002; with a slight modification).
0.01 M PBS, pH 7.4, was prepared by dissolving 4 g of NaCl, 0.1 g of KCl, 0.722 g of Na2HPO4, and 0.12 g of KH2PO4 with water to a final volume of 500 ml.
Primary stock solutions of TK900D, TK900E, and NP046 at 100 µg/ml; and secondary stock solutions at 1 µg/ml in methanol were prepared. […]
The ultrafiltrate were extracted and analysed quantitatively using the validated LC-MS/MS bioanalytical drug assay methods specified in Chapters 8 and 9.
The %NSB were calculated using the equation: […]

[4] = Analyte stock solution stability; assay type: physicochemical; details: 100 days; for Analyte stock solution stability, % Reference: vs fresh
Procedure: NP046 was stable for 100 days in stock solutions of methanol and acetonitrile when stored at room temperature and -20 °C. It was stable in whole blood on bench for 3.3 hours while waiting for extraction, and was stable after three freeze-thaw cycles too.

[5] = male, C57BL/6, whole blood, IV 5 mg/kg, mouse
[6] = male, C57BL/6, whole blood, oral 10 mg/kg, mouse
[7] = male, C57BL/6, whole blood, oral 50 mg/kg, mouse

SMILES: Oc1cc(CCCc2ccc(F)cc2)ccc1CN1CCCCC1 [NP046, 5-(3-(4-fluorophenyl)propyl)-2-(piperidin-1-ylmethyl)phenol]
- % parasitaemia ([1]; 1 mg/kg IV): 10.2 ± 1.75%
- % growth inhibition ([1]; 5 mg/kg IV): 87.4%
- % parasitaemia ([1]; 5 mg/kg IV): 4.05 ± 0.12%
- % growth inhibition ([1]; 10 mg/kg oral): 24.6%
- % parasitaemia ([1]; 10 mg/kg oral): 24.3 ± 0.80%
- % growth inhibition ([1]; 50 mg/kg oral): 47.3%
- % parasitaemia ([1]; 50 mg/kg oral): 16.7 ± 3.34%
- AUC 0 - ∞ ([2]; IV 5 mg/kg, mouse blood): 248 ± 12.6 µmol·min/L
- half-life ([2]; male, C57BL/6, whole blood, other: oral and IV (range over both), range over oral (50 and 10 mg/kg) and IV (5 mg/kg) groups, mouse, read-out: mean half-life): 3.1 to 4.4 h
- Vd [2, 5]: 16.9 ± 1.3 L/kg
- half-life ([2]; male, C57BL/6, whole blood, IV 5 mg/kg, mouse blood, mean ± S.E.M, n = 5, read-out: Apparent t 1/2 (converted)): 3.2 ± 0.35 h
- clearance ([2]; male, C57BL/6, whole blood, IV 5 mg/kg, mouse, read-out: Blood CL total): 62.2 ± 3 mL/min/kg
- concentration at 7 h [2, 5]: 140 nM
- Tmax [2, 6]: 0.8 h
- bioavailability [2, 6]: 6 ± 2.9%
- Cmax ([2]; male, C57BL/6, whole blood, oral 10 mg/kg, mouse blood): 130 ± 60 nM
- half-life ([2]; male, C57BL/6, whole blood, oral 10 mg/kg, mouse blood, mean ± S.E.M, n = 5, read-out: Apparent t 1/2 (converted)): 3.1 ± 0.46 h
- concentration at 7 h [2, 6]: 20 nM
- Tmax [2, 7]: 0.5 h
- bioavailability [2, 7]: 3.2 ± 0.47%
- Cmax ([2]; male, C57BL/6, whole blood, oral 50 mg/kg, mouse blood): 470 ± 100 nM
- half-life ([2]; male, C57BL/6, whole blood, oral 50 mg/kg, mouse blood, mean ± S.E.M, n = 5, read-out: Apparent t 1/2 (converted)): 4.4 ± 0.6 h
- concentration at 7 h [2, 7]: 50 nM
- AUC 0 - ∞ ([2]; oral 10 mg/kg, mouse blood, 10 mg/kg): 30 µmol·min/L and 30 ± 14.7 µmol·min/L
- AUC 0 - ∞ ([2]; oral 50 mg/kg, mouse blood, 50 mg/kg): 80 µmol·min/L and 80 ± 8.8 µmol·min/L
- NSB (non-specific binding to the micro-partition device) [3]: > 5%
- Analyte stock solution stability, % Reference ([4]; in acetonitrile, room temperature): 102.1%
- Analyte stock solution stability, % Reference ([4]; in acetonitrile, ~ 5°C): 83.1%
- Analyte stock solution stability, % Reference ([4]; in acetonitrile, ~ -20°C): 99.9%
- Analyte stock solution stability, % Reference ([4]; in methanol, room temperature): 93.7%
- Analyte stock solution stability, % Reference ([4]; in methanol, ~ 5°C): 87.8%
- Analyte stock solution stability, % Reference ([4]; in methanol, ~ -20°C): 94.3%
- stability in stock solutions ([4]; methanol and acetonitrile, room temperature and -20°C): stable
